What all share (assay type): cell-based, human
Assay [1] concerns whole blood from subjects with T1D and Celiac disease. Put plainly: Whole blood cytokine release assay, IFN-γ (MAGPIX), Example 1. The conditions noted are these: individual 17mer 20 μg/mL, blood 6 days after commencing oral gluten challenge; for subjects with elevated whole blood IFN-γ release: four subjects.
The test system is the same in assay [2]. Put plainly: Whole blood cytokine release assay, IL-2 (MAGPIX), Example 1. To be noted: individual 17mer 20 μg/mL, blood 6 days after commencing oral gluten challenge; for subjects with elevated whole blood IL-2 release: four subjects.
Assay [3] shares this test system. Put plainly: Whole blood cytokine release assay, IP-10 (MAGPIX), Example 1. To be noted: individual 17mer 20 μg/mL, blood 6 days after commencing oral gluten challenge; for subjects with elevated whole blood IP-10 release (2-fold greater than medium alone): four subjects.

Take SSEVQQVPSPVSSEPPK [SEQ ID NO: 68]: the “subjects with elevated whole blood IFN-γ release” value in assay [1] is recorded as “Only Subject 7 responded”. The “subjects with elevated whole blood IL-2 release” value in assay [2] was “Only Subject 7 responded”. In addition, in assay [3], the “subjects with elevated whole blood IP-10 release (2-fold greater than medium alone)” value is given as “Only Subject 7 responded”.

For the sequence WESGCTVIVMLTPLVED [SEQ ID NO: 67], the “subjects with elevated whole blood IFN-γ release” value in assay [1] is “Only Subject 7 responded”. Further, the “subjects with elevated whole blood IL-2 release” value in assay [2] is “Only Subject 7 responded”. For the same sequence, in assay [3], the “subjects with elevated whole blood IP-10 release (2-fold greater than medium alone)” value is “Only Subject 7 responded”.

Turning to YTPKTRREAEDLQVGQV [SEQ ID NO: 55], the IFN-g fold-change in assay [1] (Subject 1) came out at 0.51; in assay [1] (Subject 2) it was 0.82; in assay [1] (Subject 6) it was 1.00; in assay [1] (Subject 7), 1.86. The “IFN-g fold-change (preproinsulin peptides)” value was 0.51 fold in assay [1] (Subject 1), 0.82 fold in assay [1] (Subject 2), 1.00 fold in assay [1] (Subject 6) and 1.86 fold in assay [1] (Subject 7). The IL-2 fold-change in assay [2] (Subject 1) worked out at 1.00; in assay [2] (Subject 2), 1.00; in assay [2] (Subject 6), 1.04; in assay [2] (Subject 7) it was 8.00. Further, the “IL-2 fold-change (preproinsulin peptides)” value amounted to 1.00 fold in assay [2] (Subject 1), 1.00 fold in assay [2] (Subject 2), 1.04 fold in assay [2] (Subject 6) and 8.00 fold in assay [2] (Subject 7). Moreover, the IP-10 fold-change in assay [3] (Subject 1) turned out to be 1.06; in assay [3] (Subject 2) it was 1.22; in assay [3] (Subject 6) it was 1.56; in assay [3] (Subject 7), 1.42. Besides, the “IP-10 fold-change (preproinsulin peptides)” value is 1.06 fold in assay [3] (Subject 1), 1.22 fold in assay [3] (Subject 2), 1.56 fold in assay [3] (Subject 6) and 1.42 fold in assay [3] (Subject 7).

These data come from patent US10473647B1, “Peptides for use in treatment and diagnosis of type 1 diabetes” (ImmusanT, Inc., priority 2014, dated 2019).
